US20250145589A1, “PYRIDINE DERIVATIVE AND USE THEREOF” (SICHUAN HUIYU PHARMACEUTICAL CO., LTD., priority 2021, published 2025)

Tests used:
[1] = tested on: KRAS G12C mutation; conditions: at the cellular level; cited from earlier work
[2] = tested on: pancreatic cancer MIA-Paca2 cell subcutaneous xenograft tumor; conditions: cited from earlier work
[3] = biological target: PI3Kα (Homo sapiens (Human), UniProt P42336); assay: Inhibition of PI3Kα efficacy assay (ADP-Glo kinase assay); type: biochemical; conditions: Table 1; read-out: PI3Kα inhibitory activity (IC50)
Chain of PI3Kα (P42336 whole entry): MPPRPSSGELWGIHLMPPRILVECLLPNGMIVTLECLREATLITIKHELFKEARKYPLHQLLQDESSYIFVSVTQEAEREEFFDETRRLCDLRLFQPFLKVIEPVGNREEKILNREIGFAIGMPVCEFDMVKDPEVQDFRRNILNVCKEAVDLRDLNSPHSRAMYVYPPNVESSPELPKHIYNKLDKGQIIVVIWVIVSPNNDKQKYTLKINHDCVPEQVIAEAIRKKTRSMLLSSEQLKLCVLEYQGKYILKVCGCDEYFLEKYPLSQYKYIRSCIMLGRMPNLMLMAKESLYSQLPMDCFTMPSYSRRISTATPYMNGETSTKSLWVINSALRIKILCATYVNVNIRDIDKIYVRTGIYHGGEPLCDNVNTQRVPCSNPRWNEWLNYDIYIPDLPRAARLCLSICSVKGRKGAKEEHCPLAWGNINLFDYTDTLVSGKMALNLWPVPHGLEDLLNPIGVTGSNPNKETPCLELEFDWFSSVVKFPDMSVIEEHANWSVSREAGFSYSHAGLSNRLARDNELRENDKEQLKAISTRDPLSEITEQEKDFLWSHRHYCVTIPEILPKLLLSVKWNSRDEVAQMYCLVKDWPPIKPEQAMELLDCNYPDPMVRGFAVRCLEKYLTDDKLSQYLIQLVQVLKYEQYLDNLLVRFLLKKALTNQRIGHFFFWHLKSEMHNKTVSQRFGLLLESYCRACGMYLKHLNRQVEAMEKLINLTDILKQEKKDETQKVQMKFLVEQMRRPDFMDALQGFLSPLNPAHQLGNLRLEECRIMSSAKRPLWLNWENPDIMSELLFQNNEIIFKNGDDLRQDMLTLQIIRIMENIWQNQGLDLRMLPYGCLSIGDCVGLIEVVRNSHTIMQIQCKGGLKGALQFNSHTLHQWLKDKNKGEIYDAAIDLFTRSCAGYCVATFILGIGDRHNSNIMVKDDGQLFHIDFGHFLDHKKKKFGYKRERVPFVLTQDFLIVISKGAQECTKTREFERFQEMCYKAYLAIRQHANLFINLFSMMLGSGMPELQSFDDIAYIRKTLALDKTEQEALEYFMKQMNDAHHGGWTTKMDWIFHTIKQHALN
Chain of PI3Kα (P27986 whole entry partner): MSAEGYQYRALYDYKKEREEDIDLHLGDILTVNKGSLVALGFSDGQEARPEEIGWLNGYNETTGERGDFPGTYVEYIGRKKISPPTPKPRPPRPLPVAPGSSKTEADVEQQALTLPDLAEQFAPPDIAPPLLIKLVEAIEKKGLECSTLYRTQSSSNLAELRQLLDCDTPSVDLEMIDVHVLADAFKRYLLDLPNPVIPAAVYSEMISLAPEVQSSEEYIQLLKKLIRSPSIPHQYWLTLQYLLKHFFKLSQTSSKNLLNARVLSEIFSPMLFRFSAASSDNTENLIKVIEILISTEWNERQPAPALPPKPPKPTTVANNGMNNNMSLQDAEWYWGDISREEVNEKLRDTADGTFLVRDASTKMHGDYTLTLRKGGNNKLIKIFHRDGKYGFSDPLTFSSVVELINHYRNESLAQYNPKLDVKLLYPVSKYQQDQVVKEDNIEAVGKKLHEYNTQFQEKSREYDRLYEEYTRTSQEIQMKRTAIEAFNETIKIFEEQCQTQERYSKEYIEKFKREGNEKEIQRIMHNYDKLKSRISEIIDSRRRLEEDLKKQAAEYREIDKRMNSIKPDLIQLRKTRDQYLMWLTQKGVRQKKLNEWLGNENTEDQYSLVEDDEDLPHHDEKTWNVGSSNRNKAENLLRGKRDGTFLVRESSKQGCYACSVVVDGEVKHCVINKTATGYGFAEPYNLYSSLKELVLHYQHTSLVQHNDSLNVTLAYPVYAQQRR
In short: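 Eight five-fold dilutions of compound (2 mM DMSO stock) tested; kinase reaction with PI and ATP ran 60 min at RT, followed by ADP-Glo and detection reagent steps of 40 min each. Four-parameter logistic fitting gave IC50 values.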

[4] = biological target: PI3Kδ (Homo sapiens (Human), UniProt O00329); assay: Inhibition of PI3Kδ efficacy assay (ADP-Glo kinase assay); type: biochemical; conditions: Table 1; read-out: PI3Kδ inhibitory activity (IC50)
Chain of PI3Kδ (O00329 whole entry): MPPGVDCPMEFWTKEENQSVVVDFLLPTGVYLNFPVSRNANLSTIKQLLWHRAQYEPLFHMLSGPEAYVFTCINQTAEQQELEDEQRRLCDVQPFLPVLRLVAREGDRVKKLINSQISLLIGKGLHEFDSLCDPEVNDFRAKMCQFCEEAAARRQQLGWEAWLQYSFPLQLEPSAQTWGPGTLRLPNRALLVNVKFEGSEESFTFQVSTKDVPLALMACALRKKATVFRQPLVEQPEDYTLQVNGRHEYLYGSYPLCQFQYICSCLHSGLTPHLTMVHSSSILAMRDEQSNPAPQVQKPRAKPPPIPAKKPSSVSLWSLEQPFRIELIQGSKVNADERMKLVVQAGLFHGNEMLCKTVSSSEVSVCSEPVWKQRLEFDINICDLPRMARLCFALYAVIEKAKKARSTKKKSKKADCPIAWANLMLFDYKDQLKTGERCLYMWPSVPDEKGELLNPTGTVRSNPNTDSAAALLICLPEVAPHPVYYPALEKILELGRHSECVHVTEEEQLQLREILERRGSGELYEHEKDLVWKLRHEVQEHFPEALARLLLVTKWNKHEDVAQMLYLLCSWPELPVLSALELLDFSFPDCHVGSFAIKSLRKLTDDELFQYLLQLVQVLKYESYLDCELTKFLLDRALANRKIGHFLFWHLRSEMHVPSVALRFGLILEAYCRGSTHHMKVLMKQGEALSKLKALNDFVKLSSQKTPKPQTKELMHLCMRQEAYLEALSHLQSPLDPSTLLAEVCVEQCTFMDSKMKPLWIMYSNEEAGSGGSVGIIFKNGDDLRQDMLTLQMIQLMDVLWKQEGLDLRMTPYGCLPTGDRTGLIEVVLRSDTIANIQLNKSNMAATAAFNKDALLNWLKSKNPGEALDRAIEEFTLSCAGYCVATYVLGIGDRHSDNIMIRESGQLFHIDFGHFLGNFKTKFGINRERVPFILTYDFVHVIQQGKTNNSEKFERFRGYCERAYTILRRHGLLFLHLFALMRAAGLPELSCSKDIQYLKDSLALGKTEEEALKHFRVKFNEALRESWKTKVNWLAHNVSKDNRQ
Chain of PI3Kδ (P27986 whole entry partner): as the sequence (P27986 whole entry partner) above
In short: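 Luminescent ADP-Glo readout of PI3Kδ: after a 60 min RT reaction with PI/ATP substrate, ATP depletion (40 min) and ADP detection (40 min) steps followed. Compounds tested as eight five-fold serial dilutions; inhibition rates fitted to log(inhibitor) vs. response, variable slope, for IC50.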

[5] = biological target: KRAS^G12C-SOS1 (Homo sapiens (Human), UniProt P01116, G12C); assay: HTRF KRAS G12C/SOS1 binding assay; conditions: Table 5
Chain of KRAS^G12C-SOS1 (P01116-2 other isoform, or with tags, fused parts or gaps G12C): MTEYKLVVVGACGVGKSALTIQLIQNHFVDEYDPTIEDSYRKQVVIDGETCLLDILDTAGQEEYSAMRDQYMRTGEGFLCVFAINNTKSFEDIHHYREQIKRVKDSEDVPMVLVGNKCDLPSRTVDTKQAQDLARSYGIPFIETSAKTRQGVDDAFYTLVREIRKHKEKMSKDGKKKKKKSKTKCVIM
Method: Initially, a 2 mM stock solution of the test compound (dissolved in DMSO) was serially diluted in five-fold concentrations using DMSO to obtain eight working solutions 1 (200×). Subsequently, each of the eight working solutions 1 was further diluted in a 20-fold gradient by adding 5 μL into 95 μL of Diluent buffer, mixed completely with vortex mixer, resulting in eight working solutions 2 (10×). […] Subsequently, 5 μL of Anti-tag 1-Tb^3+ stock solution and 5 μL of Anti-tag2-XL665 were added to each well, mixed, and incubated at 4° C. for 3 hours. Remove the plate and read on an HTRF® compatible reader, with the excitation light wavelength set at 337 nm and readings recorded at 620 nm and 665 nm. The data results were presented as the ratio of the 665 nm signal value to the 620 nm signal value for each well, calculated as follows: […]. The inhibition rate was calculated using the following formula: […]
Data were analyzed using GraphPad Prism with log (inhibitor) vs. response-Variable Slope (four parameters) fitting calculations for IC50 values.

[6] = tested on: MIA PaCa-2 cells (KRAS G12C mutant); assay: MIA PaCa-2 cell anti-proliferation (CellTiter-Glo); type: cell-based; conditions: Homo sapiens, 72 h; MIA Paca-2 cells, 3 days, Table 7; read-out: MIA PaCa-2 (IC50)
In short: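 Viable-cell luminescence (CellTiter-Glo, ≥30 min at 25 °C) measured after a 3-day, 37 °C exposure to compounds at 9 points, 4-fold spaced, in DMEM containing 10% FBS plus 2.5% horse serum. IC50 derived versus no-inhibitor wells.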

[7] = tested on: NCI-H358-AMGR drug-resistant cell line; assay: NCI-H358-AMGR drug-resistant cell proliferation inhibitory activity test; type: cell-based; conditions: 72 h; NCI-H358-AMGR drug-resistant cells, 3 days incubation, CellTiter-Glo
Method: Test Example 6t Generation of NCI-H358-AMGR Drug-Resistant Cell Line
(§1) NCI-H358 cells were seeded and cultured at 50 to 70% confluence in six-well plate with RPMI-640 (10% FBS) medium at 37° C. with 5%4 CO2. AMG510 was added for induction at three starting concentrations of 1 nM, 10 nM and 50 nM, and the medium containing the same concentration of AMG510 was replaced every 3 days. Cells were passaged once they reached confluence. After every, two passages at a given concentration of drug, the concentration was increased in a 3-old increment until final concentrations of 1 μM for AMG510 was achieved.
(§2) NCI-H358-AMGR cells in logarithmic growth phase were collected and seeded into a clear-bottom 96-well plate at a density of 4×10^3 cells per well in 80 μL of medium, and then incubated overnight at 37° C. with 5% CO2. The compounds were serially diluted 5-fold in DMSO to obtain 8 concentrations, and then further diluted with RPMI-640) (10% FBS) cell culture medium to obtain the working solutions (5×), 20 μL of each working solution was added to the cell culture supernatant in each well, and the plate was further incubated for 3 days at 37° C. with 5% CO2. The plate was then equilibrated with CellTiter-Glo® reagent at room temperature (25° C.) for 10-30 minutes. After aspirating 50 μL of the medium, 50 μL of CellTiter-Glo®, reagent was added. The cells were thoroughly mixed with the CellTiter-Glo®, reagent using a microplate shaker for 2 minutes, and then incubated at room temperature for 10 minutes. The %-well plate was placed in a multi-mode microplate reader to record the luminescence values (RLU).
(§3) The inhibitory rate was calculated using the following formula: […]
Data were analyzed using GraphPad Prism for IC50 values (Note: The negative control refers to the group without inhibitor).

[8] = tested on: MIA PaCa-2-AMGR drug-resistant cell line; assay: MIA PaCa-2-AMGR drug-resistant cell proliferation inhibitory activity test; type: cell-based; conditions: 72 h, MIA PaCa-2-AMGR drug-resistant cells, 3 days incubation, CellTiter-Glo
Method: Test Example 7: Generation of MIA PaCa-2-AMGR drug-resistant cell line
as §1, with “MIA PaCa-2” for “NCI-H358”, “DMEM” for “RPMI-640”, “FBS+2.5% horse serum)” for “FBS)”, “5%” for “5%4”, “every” for “every,”, “3-fold” for “3-old”
as §2, with “MIA PaCa-2-AMGR” for “NCI-H358-AMGR”, “DMEM” for “RPMI-640)”, “FBS+2.5% horse serum)” for “FBS)”, “CellTiter-Glo®” for “CellTiter-Glo®,”, “96-well” for “%-well”
as §3
Data were analyzed using GraphPad Prism for IC50 values (Note: The negative control refers to the group without inhibitor) The data were presented m Table 9

Row | Compound | cellular anti-proliferative activity [1] | tumor growth inhibition [2] | IC50 [3] [nM] | IC50 [4] [nM] | IC50 [5] [nM] | IC50 [6] [nM] | IC50 [7] [nM] | IC50 [8] [nM]
1 | C=CC(=O)N1CCN(c2ncnc3c(F)c(-c4c(O)cccc4F)c(Cl)cc23)CC1 [ARS-1620] | nM-level | effectively inhibit tumor growth | – | – | – | – | – | –
2 | COc1ncc(-c2ccc3ncnc(N4CCN(C(=O)/C=C/C(C)=O)CC4)c3c2)cc1NS(=O)(=O)c1ccc(Cl)s1 [Example 38, (E)-5-chloro-N-(2-methoxy-5-(4-(4-(4-oxopent-2-enoyl)piperazin-1-yl)quinazolin-6-yl)pyridin-3-yl)thiophene-2-sulfonamide] | – | – | 1.5 | 14.7 | 807 | 59.8 | 51.1 | 216
